Reference: patent US20110045101A1, “FUNGICIDAL SUBSTITUTED AZOLES” (E.I. Du Pont De Nemours and Company, priority 2009, published 2011)
Marks after values point to notes of the source that are not given here.

Experiments:
Assay type in all cases: in vivo
Conditions in all cases: 100 = 100% disease control
[1] = system: Erysiphe graminis f. sp. tritici; assay: Test J: wheat powdery mildew on wheat seedlings, sprayed the day before inoculation, visual disease rating
How it was run: (§1)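 200 ppm run-off spray (500 g/ha equivalent); * = 40 ppm. Vehicle: acetone/water 50/50, 250 ppm Trem® 014.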

[2] = system: Botrytis cinerea; assay: Test C: tomato Botrytis on tomato seedlings, sprayed the day before inoculation, visual disease rating
How it was run: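 Tomato seedlings were sprayed until run-off with test suspensions in acetone/water (50/50) carrying 250 ppm polyhydric alcohol ester surfactant. Standard dose was 200 ppm, with 40 ppm for marked entries.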

[3] = system: Septoria tritici; assay: Test G: wheat leaf blotch on wheat seedlings, sprayed the day before inoculation, visual disease rating
How it was run: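 Compounds dissolved in acetone (3% of final volume), then suspended in 50/50 acetone/water with 250 ppm Trem® 014 and sprayed to run-off on seedlings at 200 ppm (≈500 g/ha) or 40 ppm where marked. Inoculation with spores followed next day; visual rating after 48 h saturated at 24° C plus 19 days at 20° C.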

[4] = system: Puccinia recondita f. sp. tritici; assay: Test I: wheat leaf rust on wheat seedlings, sprayed the day before inoculation, visual disease rating
How it was run: as §1

[5] = system: Puccinia recondita f. sp. tritici; assay: Test H: wheat leaf rust, test suspension sprayed after inoculation of wheat seedlings, visual disease rating
Description: General protocol for preparing test suspensions for Tests A-J: The test compounds were first dissolved in acetone in an amount equal to 3% of the final volume and then suspended at the desired concentration (in ppm) in acetone and purified water (50/50 mix) containing 250 ppm of the surfactant Trem® 014 (polyhydric alcohol esters). The resulting test suspensions were then used in tests A-J. Spraying a 200 ppm test suspension to the point of run-off on the test plants was the equivalent of a rate of 500 g/ha. […] Wheat seedlings were inoculated with a spore suspension of Puccinia recondita f. sp. tritici (the causal agent of wheat leaf rust) and incubated in a saturated atmosphere at 20° C. for 24 h, and then moved to a growth chamber at 20° C. for 2 days. […] A dash (-) indicates no test results. All results are for 200 ppm except where followed by “*”, which indicates 40 ppm.

[6] = system: Septoria nodorum; assay: Test F: wheat glume blotch on wheat seedlings, sprayed the day before inoculation, visual disease rating
How it was run: as §1

[7] = system: Alternaria solani; assay: Test D: tomato early blight, sprayed the day before inoculation, visual disease rating
How it was run: as §1

[8] = 40 ppm (marked *), 0 = no control
[9] = 200 ppm, 0 = no control relative to controls

| Structure (SMILES) | Test J disease control rating [1, 9] [%] | Test C disease control rating [2, 9] [%] | Test G disease control rating [3, 9] [%] | Test I disease control rating [4, 9] [%] | Test H disease control rating [5, 9] [%] | Test F disease control rating [6, 9] [%] | Test D disease control rating [7, 9] [%] | other results |
| --- | --- | --- | --- | --- | --- | --- | --- | --- |
| Cc1nc(Br)c(-c2c(F)cccc2F)n1-c1ccc(Cl)c2ccccc12 [compound 337] | – | – | – | – | – | – | – | Test J disease control rating [1, 8]: 0* %; Test C disease control rating [2, 8]: 19* %; Test G disease control rating [3, 8]: 23* %; Test I disease control rating [4, 8]: 0* %; Test H disease control rating [5, 8]: 0* %; Test F disease control rating [6, 8]: 0* %; Test D disease control rating [7, 8]: 0* % |
| Cc1nc(Br)c(Cc2ccc(F)cc2F)n1-c1ccc(Cl)cc1 [compound 404] | 98 | 100 | 99 | 97 | 0 | 0 | 0 | – |
| Fc1cc(F)c(-c2c(Cl)ncn2-c2ccc(OC(F)F)cc2)c(F)c1 [compound 585] | 99 | 100 | 100 | 100 | 0 | 0 | 99 | – |
| Cc1ccc(-n2c(Br)nc(Br)c2-c2c(F)ccc(F)c2F)cc1 [compound 461] | – | – | – | – | – | – | – | Test J disease control rating ([1]; 40 ppm (marked *)): 98* %; Test C disease control rating ([2]; 40 ppm (marked *)): 99* %; Test G disease control rating ([3]; 40 ppm (marked *)): 94* %; Test I disease control rating ([4]; 40 ppm (marked *)): 97* %; Test H disease control rating ([5]; 40 ppm (marked *)): 0* %; Test F disease control rating ([6]; 40 ppm (marked *)): 0* %; Test D disease control rating ([7]; 40 ppm (marked *)): 99* % |
| N#Cc1ccc(F)c(-c2cnc(Cl)n2-c2ccc(Cl)nc2)c1F [compound 697] | 93 | 100 | 98 | 19 | 8 | 0 | 91 | – |
| Cc1nc(C)n(-c2c(F)cc(F)cc2F)c1-c1ccc(Cl)cc1 [compound 308] | – | – | – | – | – | – | – | Test J disease control rating [1, 8]: 0* %; Test C disease control rating [2, 8]: 99* %; Test G disease control rating [3, 8]: 88* %; Test I disease control rating [4, 8]: 41* %; Test H disease control rating [5, 8]: 11* %; Test F disease control rating [6, 8]: 0* %; Test D disease control rating [7, 8]: 100* % |
| COc1cc(F)c(-c2c(Cl)nc(Cl)n2-c2ccc(NC(C)=O)nc2)c(F)c1 [compound 673] | 90 | 99 | 99 | 100 | 9 | 99 | 100 | – |
| COc1cc(F)c(-c2c(Br)nnn2-c2ccc(Cl)cc2)c(F)c1 [compound 627] | 98 | 99 | 99 | 95 | 40 | 0 | 99 | – |
| COc1ccc(F)c(-c2c(Cl)nc(Br)n2Cc2ccc(Cl)cc2)c1F [compound 289] | – | – | – | – | – | – | – | Test J disease control rating ([1]; 200 ppm, 0 = no control): 97%; Test C disease control rating ([2]; 200 ppm, 0 = no control): 100%; Test G disease control rating ([3]; 200 ppm, 0 = no control): 94%; Test I disease control rating ([4]; 200 ppm, 0 = no control): 94%; Test H disease control rating ([5]; 200 ppm, 0 = no control): 11%; Test F disease control rating ([6]; 200 ppm, 0 = no control): 0%; Test D disease control rating ([7]; 200 ppm, 0 = no control): 96% |
| Cc1nn(C)c(Cc2cccc(F)c2)c1-c1ccc(F)cc1Cl [compound 311] | 95 | 98 | – | 99 | 100 | 0 | 9 | – |
| COc1ccc(F)c(-c2c(C)nc(Cl)n2-c2ccc(Cl)cc2)c1F [compound 526] | 100 | 100 | 99 | 100 | 0 | 100 | 100 | – |
| COc1ccc(F)c(-c2c(Cl)nc(C)n2-c2cccc(OC(F)F)c2)c1F [compound 426] | 100 | 100 | 100 | 100 | 27 | 100 | 100 | – |
| COc1cc(F)c(-c2c(Cl)nnn2-c2ccc(Cl)cc2)c(F)c1 [compound 626] | 97 | 99 | 100 | 79 | 17 | 0 | 99 | – |
| Cc1nn(C)c(Cc2ccc(F)cc2)c1-c1ccc(F)cc1Cl [compound 312] | 92 | 99 | – | 99 | 9 | 0 | 82 | – |
| Cc1nn(C)c(Cc2ccc(F)cc2F)c1-c1ccc(F)cc1Cl [Compound 313, 4-(2-chloro-4-fluorophenyl)-5-[(2,4-difluorophenyl)methyl]-1,3-dimethyl-1H-pyrazole] | – | – | – | – | – | – | – | pest or weed control at 200 ppm ([1]; Blumeria graminis, 168 h, 200 ppm, 0 = no control relative to controls): 99%; pest or weed control at 200 ppm ([2]; Botrytis cinerea, 120 h, 200 ppm, 0 = no control relative to controls): 99%; pest or weed control at 200 ppm ([4]; Puccinia recondita, 168 h, 200 ppm, 0 = no control relative to controls): 100%; pest or weed control at 200 ppm ([5]; Puccinia recondita, 96 h, 200 ppm, 0 = no control relative to controls): 95%; pest or weed control at 200 ppm ([6]; Parastagonospora nodorum, 264 h, 200 ppm, 0 = no control relative to controls): 0%; pest or weed control at 200 ppm ([7]; Alternaria solani, 168 h, 200 ppm, 0 = no control relative to controls): 100% |
| Fc1cc(F)c(-c2c(Cl)nc(Cl)n2-c2cccc(OC(F)F)c2)c(F)c1 [compound 597] | 100 | 100 | 98 | – | 99 | 97 | 100 | – |
| COc1cc(F)c(-c2c(Cl)nc(C)n2-c2ccc(SC#N)cc2)c(F)c1 [Compound 741, 4-[4-chloro-5-(2,6-difluoro-4-methoxyphenyl)-2-methyl-1H-1-yl]phenyl thiocyanate] | 72 | 100 | – | 99 | 0 | 92 | 99 | – |
| Cc1nc(C)n(-c2ccc(Cl)cc2)c1-c1c(F)cc(F)cc1F [compound 45] | 100 | 100 | – | 100 | 99 | 100 | 98 | – |
| Cc1nc(Cl)c(-c2c(F)cccc2F)n1Cc1ccccc1 [compound 118] | 100 | 99 | 94 | 99 | – | 60 | 100 | – |
| Cc1nc(Cl)n(-c2c(F)cc(F)cc2F)c1-c1ccc(Cl)cc1 [compound 446] | – | – | – | – | – | – | – | Test J disease control rating [1, 8]: 91* %; Test C disease control rating [2, 8]: 96* %; Test G disease control rating [3, 8]: 95* %; Test I disease control rating [4, 8]: 68* %; Test F disease control rating [6, 8]: 0* %; Test D disease control rating [7, 8]: 100* % |
| Cc1ncn(-c2c(F)cc(F)cc2F)c1-c1ccc(Cl)cc1 [compound 447] | 81 | 94 | 30 | 0 | – | 0 | 80 | – |
| Fc1ccc(F)c(-c2c(Cl)nc(Cl)n2-c2ccc(Cl)c(Cl)c2)c1F [compound 234] | – | – | – | – | – | – | – | Test J disease control rating ([1]; 200 ppm, 0 = no control): 98%; Test C disease control rating ([2]; 200 ppm, 0 = no control): 95%; Test G disease control rating ([3]; 200 ppm, 0 = no control): 98%; Test I disease control rating ([4]; 200 ppm, 0 = no control): 55%; Test F disease control rating ([6]; 200 ppm, 0 = no control): 0%; Test D disease control rating ([7]; 200 ppm, 0 = no control): 99% |
